We go through 22 compounds from US20050282818A1, “Ubiquitin ligase inhibitors” (Rigel Pharmaceuticals, Inc., priority 2004, published 2005).

One assay concerns the target APC11/APC2 (Homo sapiens, UniProt Q9NYG5+Q9UJX6). The assay can be described thus: APC-11/APC-2 ligase assay (APC auto ubiquitination). The class given is biochemical. The settings on record: APC assay. The method, boiled down: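 His-tagged APC was captured on nickel plates with human E1 (5 ng/well), UbcH5c (20 ng/well), APC (100 ng/well) and Flag-ubiquitin (100 ng/well) in a Tris pH 7.6 reaction buffer containing 2.5 mM ATP, for 1 hour at room temperature. Read-out was anti-Flag/HRP chemiluminescence. IC50 was set against a DMSO control, typically from 6 or 8 concentrations.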

For assay [1], the system named is ICAM-1 expression in A549 cells. Description: ICAM assay (IL-1 induced ICAM-1/CD54 expression in A549 cells). The class given is cell-based, human. The method in brief:
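Luminescent immunostaining (anti-CD54, then anti-mouse IgG, 1 h) quantifies ICAM-1 on A549 cells induced 4 h at 37° C by IL-1 (4 μl of 25 ng/ml added). Compound is added 1 h before the cytokine to cells plated overnight at 10,000 per well.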

Chain of APC11/APC2 (Q9NYG5 whole entry): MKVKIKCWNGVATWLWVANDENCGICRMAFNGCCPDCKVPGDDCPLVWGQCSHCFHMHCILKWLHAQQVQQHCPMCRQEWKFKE
Chain of APC11/APC2 (Q9UJX6 whole entry): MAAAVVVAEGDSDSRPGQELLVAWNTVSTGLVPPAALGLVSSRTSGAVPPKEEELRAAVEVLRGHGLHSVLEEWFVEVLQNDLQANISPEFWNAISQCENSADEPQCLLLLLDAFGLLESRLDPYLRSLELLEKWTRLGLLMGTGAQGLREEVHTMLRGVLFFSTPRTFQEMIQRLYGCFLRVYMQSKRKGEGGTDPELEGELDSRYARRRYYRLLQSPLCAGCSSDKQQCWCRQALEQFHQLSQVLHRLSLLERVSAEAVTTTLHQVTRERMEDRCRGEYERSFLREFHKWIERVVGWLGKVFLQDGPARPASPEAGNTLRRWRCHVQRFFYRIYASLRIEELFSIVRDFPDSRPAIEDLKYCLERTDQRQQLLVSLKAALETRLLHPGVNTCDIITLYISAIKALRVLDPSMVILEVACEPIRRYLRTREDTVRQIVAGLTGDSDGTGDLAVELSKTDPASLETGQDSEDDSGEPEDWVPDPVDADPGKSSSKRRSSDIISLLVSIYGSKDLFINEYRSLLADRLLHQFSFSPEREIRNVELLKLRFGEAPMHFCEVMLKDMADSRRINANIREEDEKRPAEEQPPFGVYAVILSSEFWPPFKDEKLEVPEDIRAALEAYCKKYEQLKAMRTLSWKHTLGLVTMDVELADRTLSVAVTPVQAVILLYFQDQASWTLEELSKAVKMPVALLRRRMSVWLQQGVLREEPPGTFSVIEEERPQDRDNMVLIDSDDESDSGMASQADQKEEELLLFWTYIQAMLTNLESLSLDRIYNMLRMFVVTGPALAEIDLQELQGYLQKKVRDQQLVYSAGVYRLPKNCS

On APC11/APC2, `Cc1ccc(Cl)cc1N1CCN(c2ccc([N+](=O)[O-])c3nonc23)CC1` [compound 145, 4-[4-(5-chloro-2-methylphenyl)piperazin-1-yl]-7-nitro-2,1,3-benzoxadiazole] came in with an IC50 of 1 to 20 µM. Same read-out and setting: in the case of `O=[N+]([O-])c1ccc(N2CCN(c3ccc(O)cc3)CC2)c2nonc12` [compound 146, 4-[4-(7-nitro-2,1,3-benzoxadiazol-4-yl)piperazin-1-yl]phenol] it was 1 to 20 µM; in that of `O=[N+]([O-])c1ccc(N2CCN(c3ncccc3C(F)(F)F)CC2)c2nonc12` [compound 148, 4-nitro-7-{4-[3-(trifluoromethyl)pyridin-2-yl]piperazin-1-yl}-2,1,3-benzoxadiazole], 1 to 20 µM. Compound `CCOC(=O)c1cc(C#N)c(C)nc1N1CCN(c2ccc([N+](=O)[O-])c3nonc23)CC1` [compound 153, ethyl 5-cyano-6-methyl-2-[4-(7-nitro-2,1,3-benzoxadiazol-4-yl)piperazin-1-yl]nicotinate] registered a concentration for half-maximal inhibition (IC50) at APC11/APC2 of 1 to 20 µM. Regarding `O=[N+]([O-])c1ccc(Sc2nc3ccccc3s2)c2nonc12` [compound 158, 4-(1,3-benzothiazol-2-ylthio)-7-nitro-2,1,3-benzoxadiazole], the concentration for half-maximal inhibition (IC50) was no less than 20 µM in assay [1] (Homo sapiens, A549, ICAM assay) and 1 to 20 µM on APC11/APC2.

At APC11/APC2, `O=[N+]([O-])c1ccc(N2CCC(O)(c3ccc(Cl)cc3)CC2)c2nonc12` [compound 159, 4-(4-chlorophenyl)-1-(7-nitro-2,1,3-benzoxadiazol-4-yl)piperidin-4-ol] displayed a concentration for half-maximal inhibition (IC50) of 1 to 20 µM. As for `O=S(=O)(Oc1ccc(N2CCN(S(=O)(=O)c3ccc(Cl)c4nonc34)CC2)cc1)c1ccc(Cl)c2nonc12` [compound 171, 4-{4-[(7-chloro-2,1,3-benzoxadiazol-4-yl)sulfonyl]piperazin-1-yl}phenyl 7-chloro-2,1,3-benzoxadiazole-4-sulfonate], the IC50 against APC11/APC2 was 1 to 20 µM.

For `O=S(=O)(c1ccc(Sc2cccc3cccnc23)c2nonc12)N1CCN(c2ncc(C(F)(F)F)cc2Cl)CC1` [compound 177, 8-{[7-({4-[3-chloro-5-(trifluoromethyl)pyridin-2-yl]piperazin-1-yl}sulfonyl)-2,1,3-benzoxadiazol-4-yl]thio}quinoline], on APC11/APC2, the IC50 was 1 to 20 µM. For the compound `O=S(=O)(c1c(Cl)ccc2nonc12)N1CCN(c2ncc(C(F)(F)F)cc2Cl)CC1` [compound 179, 5-chloro-4-({4-[3-chloro-5-(trifluoromethyl)pyridin-2-yl]piperazin-1-yl}sulfonyl)-2,1,3-benzoxadiazole], the IC50 in assay [1] (Homo sapiens, A549, ICAM assay) is no less than 20 µM; at APC11/APC2, 1 to 20 µM. For `O=S(=O)(c1c(N2CCN(c3ccc(Cl)c(C(F)(F)F)c3)CC2)ccc2nonc12)N1CCN(c2ccc(Cl)c(C(F)(F)F)c2)CC1` [compound 181, 5-{4-[4-chloro-3-(trifluoromethyl)phenyl]piperazin-1-yl}-4-({4-[4-chloro-3-(trifluoromethyl)phenyl]piperazin-1-yl}sulfonyl)-2,1,3-benzoxadiazole], the concentration for half-maximal inhibition (IC50) against APC11/APC2 is 1 to 20 µM. Same read-out and setting: in the case of `Cc1cc(C)cc(-c2ccc([N+](=O)[O-])c3nonc23)c1` [compound 286, 4-(3,5-Dimethylphenyl)-7-nitro-2,1,3-benzoxadiazole] it was 1 to 20 µM. `O=[N+]([O-])c1ccc(-c2cccc(C(F)(F)F)c2)c2nonc12` [compound 309, 4-Nitro-7-[3-(trifluoromethyl)phenyl]-2,1,3-benzoxadiazole]: the IC50 is 1 to 20 µM in assay [1] (Homo sapiens, A549, ICAM assay) and 1 to 20 µM at APC11/APC2. As to `Cc1cccc(-c2ccc([N+](=O)[O-])c3nonc23)c1` [compound 310, 4-(3-Methylphenyl)-7-nitro-2,1,3-benzoxadiazole], the 50% inhibitory concentration (IC50) in assay [1] (Homo sapiens, A549, ICAM assay) fell in the range of 1 to 20 µM; against APC11/APC2 it was 1 to 20 µM. With `CC(C)(C)c1ccc(-c2ccc([N+](=O)[O-])c3nonc23)cc1` [compound 313, 4-(4-Tert-butylphenyl)-7-nitro-2,1,3-benzoxadiazole], the 50% inhibitory concentration (IC50) is 1 to 20 µM in assay [1] (Homo sapiens, A549, ICAM assay) and 1 to 20 µM against APC11/APC2. The compound `COc1cccc(-c2ccc([N+](=O)[O-])c3nonc23)c1F` [compound 314, 4-(2-Fluoro-3-methoxyphenyl)-7-nitro-2,1,3-benzoxadiazole] showed a half-maximal inhibitory concentration (IC50) against APC11/APC2 of 1 to 20 µM. `O=[N+]([O-])c1ccc(N2CCN(c3ncc(C(F)(F)F)cc3Cl)CC2)c2nonc12` [compound 315, 4-{4-[3-chloro-5-(trifluoromethyl)pyrindin-2-yl]piperazin-1-yl}-7-nitro-2,1,3-benzoxadiazole] returned a 50% inhibitory concentration (IC50) against APC11/APC2 of less than 1 µM.

For the compound `O=S(=O)(Nc1ccc2cn[nH]c2c1)c1c(O)ccc2nonc12` [compound 339, 5-hydroxy-N-(1H-indazol-6-yl)2,1,3-benzoxadiazole-4-sulfonamide], the concentration for half-maximal inhibition (IC50) in assay [1] (Homo sapiens, A549, ICAM assay) is no less than 20 µM; on APC11/APC2, no less than 20 µM. Turning to `O=S(=O)(c1c(N2CCC(Oc3ccccc3C(F)(F)F)CC2)ccc2nonc12)N1CCC(Oc2ccccc2C(F)(F)F)CC1` [compound 340, 5-[4-(2-{trifluoromethyl}phenoxy)piperidin-1-yl]-4-{[4-(2-{trifluoromethyl}phenoxy)piperidin-1-yl]sulfonyl}-2,1,3-benzoxadiazole], the IC50 was no less than 20 µM in assay [1] (Homo sapiens, A549, ICAM assay) and no less than 20 µM at APC11/APC2.

For `COc1cc(NS(=O)(=O)c2ccc(Cl)c3nonc23)c(OC)cc1Cl` [compound 341, 7-chloro-N-(4-chloro-2,5-dimethoxyphenyl)-2,1,3-benzoxadiazole-4-sulfonamide], the IC50 in assay [1] (Homo sapiens, A549, ICAM assay) is 1 to 20 µM; against APC11/APC2, no less than 20 µM. Regarding `COc1cc(Nc2ccc(S(=O)(=O)Nc3cc(OC)c(Cl)cc3OC)c3nonc23)c(OC)cc1Cl` [compound 342, N-(4-chloro-2,5-dimethoxyphenyl)-7-([4-chloro-2,5-dimethoxyphenyl]amino)-2,1,3-benzoxadiazole-4-sulfonamide], the IC50 (in assay [1] (ICAM assay); against APC11/APC2) was 1 to 20 µM each time. Regarding `COc1cc(NS(=O)(=O)c2c(Cl)ccc3nonc23)c(OC)cc1Cl` [compound 343, 5-chloro-N-(4-chloro-2,5-dimethoxyphenyl)-2,1,3-benzoxadiazole-4-sulfonamide], the half-maximal inhibitory concentration (IC50) in assay [1] (Homo sapiens, A549, ICAM assay) was 1 to 20 µM; against APC11/APC2 it was no less than 20 µM. Regarding `COc1cc(Nc2ccc3nonc3c2S(=O)(=O)Nc2cc(OC)c(Cl)cc2OC)c(OC)cc1Cl` [compound 344, N-(4-chloro-2,5-dimethoxyphenyl)-5-([4-chloro-2,5-dimethoxyphenyl]amino)-2,1,3-benzoxadiazole-4-sulfonamide], the IC50 in assay [1] (Homo sapiens, A549, ICAM assay) is no less than 20 µM; on APC11/APC2 it was no less than 20 µM.

The term IC50 denotes the midpoint of a concentration-inhibition curve. The low end stands for inhibition by little substance, the high end for a need for much substance.
